The results in this text go back to patent US12059420B2 (BRISTOL-MYERS SQUIBB COMPANY, priority 2018, dated 2024).

T1 sequence (P14902 whole entry): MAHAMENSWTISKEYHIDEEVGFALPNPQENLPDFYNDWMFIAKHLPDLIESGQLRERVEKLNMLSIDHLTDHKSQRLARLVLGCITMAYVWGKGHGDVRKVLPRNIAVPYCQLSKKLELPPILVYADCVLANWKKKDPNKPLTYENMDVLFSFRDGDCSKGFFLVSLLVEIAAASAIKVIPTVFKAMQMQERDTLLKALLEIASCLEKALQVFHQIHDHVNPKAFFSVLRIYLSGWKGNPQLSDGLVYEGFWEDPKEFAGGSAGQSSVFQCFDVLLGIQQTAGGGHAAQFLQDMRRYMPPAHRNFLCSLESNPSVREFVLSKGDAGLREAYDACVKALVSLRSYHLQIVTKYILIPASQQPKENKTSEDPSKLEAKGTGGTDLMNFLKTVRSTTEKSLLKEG

This assay has as its target T1, human IDO1 (Homo sapiens, UniProt P14902).
T1 construct: expressed in transfected cells
The assay is described as follows: IDO inhibition assay in HEK293 cells stably expressing human IDO1 (kynurenine production, Ehrlich reagent, absorbance 490 nm). It is filed as cell-based. The following applies: 20 hours incubation with compound, 500 nM reference standard = 100% inhibition, read-out: IDO1 HEK Human IC50. The protocol: HEK293 cells were transfected with a pCDNA-based mammalian expression vector harboring human IDO1 cDNA (NM 002164.2) by electroporation. They were cultured in medium (DMEM with 10% FBS) containing 1 mg/ml G418 for two weeks. Clones of HEK293 cells that stably expressed human IDO1 protein were selected and expanded for IDO inhibition assay.
The human IDO1/HEK293 cells were seeded at 10,000 cells per 50 μL per well with RPMI/phenol red free media contains 10% FBS in a 384-well black wall clear bottom tissue culture plate (Matrix Technologies LLC) 100 nL of certain concentration of compound was then added to each well using ECHO liquid handling systems. The cells were incubated for 20 hours in 37° C. incubator with 5% CO2.
The compound treatments were stopped by adding trichloroacetic acid (Sigma-Aldrich) to a final concentration at 0.2%. The cell plate was further incubated at 50° C. for 30 minute. The equal volume supernatant (20 μL) and 0.2% (w/v) Ehrlich reagent (4-dimethylaminobenzaldehyde, Sigma-Aldrich) in glacial acetic acid were mixed in a new clear bottom 384-well plate. This plate was then incubated at RT for 30 minute. The absorbance at 490 nm was measured on Envision plate reader.
Compound IC50 values were calculated using the counts of 500 nM of a reference standard treatment as one hundred percent inhibition, and counts of no compound but DMSO treatment as zero percent inhibition.
`CCCN(Cc1ccccc1)c1cc(NC(=O)Cc2ccc(C)cc2)cc(-c2ccccc2C(=O)NS(=O)(=O)C2CC2)n1` [Example 19, 2-(6-(benzyl(propyl)amino)-4-(2-(p-tolyl)acetamido)pyridin-2-yl)-N-(cyclopropylsulfonyl)benzamide]: the IC50 was determined as 485 nM.
On to `CCCN(Cc1ccccc1)c1cc(NC(=O)Nc2ccc(C)cc2)cc(-c2ccccc2C(=O)NS(=O)(=O)C2CC2)n1` [Example 20, 2-(6-(benzyl(propyl)amino)-4-(3-(p-tolyl)ureido)pyridin-2-yl)-N-(cyclopropylsulfonyl)benzamide], for which the IC50 worked out at 594 nM.
For `CCCN(Cc1ccccc1)c1cc(NC(=O)Cc2ccc(C)cc2)cc(-c2ccccc2C(=O)NS(C)(=O)=O)n1` [Example 21, 2-(6-(benzyl(propyl)amino)-4-(2-(p-tolyl)acetamido)pyridin-2-yl)-N-(methylsulfonyl)benzamide] the value was 328 nM; for `Cc1ccc(CC(=O)Nc2cc(-c3ccccc3-c3nnn[nH]3)nc(N(Cc3ccccc3)CC3CC3)n2)cc1` [Example 22, N-(6-(2-(1H-tetrazol-5-yl)phenyl)-2-(benzyl(cyclopropylmethyl)amino)pyrimidin-4-yl)-2-(p-tolyl)acetamide], 32.4 nM.
With `CCCN(Cc1ccccc1)c1nc(NC(=O)Cc2ccc(C)cc2)cc(-c2ccccc2-c2nnn[nH]2)n1` [Example 23, N-(6-(2-(1H-tetrazol-5-yl)phenyl)-2-(benzyl(propyl)amino)pyrimidin-4-yl)-2-(p-tolyl)acetamide] the figure was 16.2 nM; with `CCCN(Cc1ccccc1)c1cc(NC(=O)Nc2ccc(C)cc2)cc(-c2ccccc2C(=O)NS(C)(=O)=O)n1` [Example 24, 2-(6-(benzyl(propyl)amino)-4-(3-(p-tolyl)ureido)pyridin-2-yl)-N-(methylsulfonyl)benzamide], 256 nM; with `CCCN(Cc1ccccc1)c1cc(NC(=O)Cc2ccc(C)cc2)cc(-c2ccccc2C(=O)NS(=O)(=O)N2CCN(C)CC2)n1` [Example 25, 2-(6-(benzyl(propyl)amino)-4-(2-(p-tolyl)acetamido)pyridin-2-yl)-N-((4-methylpiperazin-1-yl)sulfonyl)benzamide], 2910 nM.
For `CCCN(Cc1ccccc1)c1cc(NC(=O)Nc2ccc(C)cc2)cc(-c2cc(C)ccc2-c2noc(=O)[nH]2)n1` [Example 26, 1-(2-(benzyl(propyl)amino)-6-(5-methyl-2-(5-oxo-4,5-dihydro-1,2,4-oxadiazol-3-yl)phenyl)pyridin-4-yl)-3-(p-tolyl)urea] the value was 11.8 nM.
On to `CCCN(Cc1ccccc1)c1cc(NC(=O)Nc2ccc(C)cc2)cc(-c2ccccc2S(N)(=O)=O)n1` [Example 27, 2-(6-(benzyl (propyl)amino)-4-(3-(p-tolyl)ureido)pyridin-2-yl) benzene sulfonamide], for which the 50% inhibitory concentration (IC50) worked out at 607 nM.
With `CCCN(Cc1ccccc1)c1cc(NC(=O)Cc2ccc(C)cc2)cc(-c2ccccc2-c2nc(=O)o[nH]2)n1` [Example 28, N-(2-(benzyl (propyl)amino)-6-(2-(5-oxo-2,5-dihydro-1,2,4-oxadiazol-3-yl)phenyl)pyridin-4-yl)-2-(p-tolyl)acetamide] the figure was 80.1 nM.
With `CCCN(Cc1ccccc1)c1cc(NC(=O)Cc2ccc(C)cc2)cc(-c2ccccc2C(N)=O)n1` [Example 29] the figure was 616 nM; with `CCCN(Cc1ccccc1)c1cc(NC(=O)Nc2ccc(C)cc2)cc(-c2ccccc2-c2nc(=O)o[nH]2)n1` [Example 31, 1-(2-(benzyl (propyl)amino)-6-(2-(5-oxo-4,5-dihydro-1,2,4-oxadiazol-3-yl)phenyl)pyridin-4-yl)-3-(p-tolyl) urea], 13.9 nM; with `CCCN(Cc1ccccc1)c1cc(NC(=O)Nc2ccc(C)cc2)cc(-c2ccccc2S(=O)(=O)NC(=O)c2ccccc2)n1` [Example 32, N-((2-(6-(benzyl (propyl)amino)-4-(3-(p-tolyl)ureido)pyridin-2-yl)phenyl)sulfonyl) benzamide], 4100 nM.
